# Tests used:
# Type in all cases: cell-based
# [1] = molecular target: T1, human 5-HT3-A(short) receptor (Homo sapiens, UniProt P46098); assay: Two-electrode voltage clamp, oocytes expressing 5-HT3-A(short) homomeric receptors
# T1 sequence (P46098 24-478): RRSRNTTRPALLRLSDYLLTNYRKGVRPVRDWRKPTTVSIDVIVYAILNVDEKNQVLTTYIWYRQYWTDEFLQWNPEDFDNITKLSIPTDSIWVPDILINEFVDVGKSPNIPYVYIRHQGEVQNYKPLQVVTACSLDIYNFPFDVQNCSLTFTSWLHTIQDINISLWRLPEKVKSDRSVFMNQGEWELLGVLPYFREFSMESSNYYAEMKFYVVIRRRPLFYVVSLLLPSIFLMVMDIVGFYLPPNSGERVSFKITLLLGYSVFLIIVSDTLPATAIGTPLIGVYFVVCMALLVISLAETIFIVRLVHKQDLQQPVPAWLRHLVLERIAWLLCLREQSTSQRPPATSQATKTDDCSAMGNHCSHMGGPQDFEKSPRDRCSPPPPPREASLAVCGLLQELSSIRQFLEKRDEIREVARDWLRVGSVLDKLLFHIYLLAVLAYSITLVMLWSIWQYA
# 5-HT3-B and 5-HT3-C = molecular target: T2, 5-HT3-B and 5-HT3-C (Homo sapiens, UniProt O95264+Q8WXA8); assay: Two-electrode voltage clamp, oocytes co-injected with 5-HT3-B and 5-HT3-C; conditions: 10 μM; 5-HT3-B 3.3 ng, 5-HT3-C 3.35 ng/oocyte
# T2 construct: Characterization of the Function of Protein Encoded by p5HT3CR in Xenopus oocvtes; expressed in transfected cells; host or cells: Xenopus laevis oocytes co-injected with cRNAs
# T2 sequence (O95264 22-441): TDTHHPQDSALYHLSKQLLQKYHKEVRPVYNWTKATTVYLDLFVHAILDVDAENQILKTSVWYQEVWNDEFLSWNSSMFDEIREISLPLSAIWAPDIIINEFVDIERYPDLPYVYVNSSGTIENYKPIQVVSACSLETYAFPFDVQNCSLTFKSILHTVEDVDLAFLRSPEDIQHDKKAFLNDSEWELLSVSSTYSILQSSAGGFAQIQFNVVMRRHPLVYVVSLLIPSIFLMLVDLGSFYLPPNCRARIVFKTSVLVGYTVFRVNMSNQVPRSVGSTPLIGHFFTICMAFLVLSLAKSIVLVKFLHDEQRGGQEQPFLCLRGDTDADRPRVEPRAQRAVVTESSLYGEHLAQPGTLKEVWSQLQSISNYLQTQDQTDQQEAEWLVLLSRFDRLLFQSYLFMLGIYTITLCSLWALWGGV
# T2 sequence (Q8WXA8 28-447): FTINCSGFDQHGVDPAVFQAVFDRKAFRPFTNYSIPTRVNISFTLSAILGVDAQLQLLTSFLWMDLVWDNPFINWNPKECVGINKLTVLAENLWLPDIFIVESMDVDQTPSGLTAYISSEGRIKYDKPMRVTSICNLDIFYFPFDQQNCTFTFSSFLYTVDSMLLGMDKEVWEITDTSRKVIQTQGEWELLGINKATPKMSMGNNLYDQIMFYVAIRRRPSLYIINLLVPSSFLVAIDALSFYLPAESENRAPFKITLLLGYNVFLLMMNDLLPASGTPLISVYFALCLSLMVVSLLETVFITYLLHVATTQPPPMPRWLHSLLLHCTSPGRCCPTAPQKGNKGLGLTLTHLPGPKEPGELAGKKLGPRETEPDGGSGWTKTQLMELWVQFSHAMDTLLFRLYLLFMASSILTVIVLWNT
# Method: (§1) Characterization of the Function of Protein Encoded by p5HT3CR in Xenopus oocvtes Xenopus laevis oocytes were prepared and injected using standard methods previously described and known in the art (Fraser et al., 1993). Ovarian lobes from adult female Xenopus laevis (Nasco, Fort Atkinson, Wis.) were teased apart, rinsed several times in nominally Ca-free saline containing (in mM): NaCl 82.5, KCl 2.5, MgCl2 1, HEPES 5, adjusted to pH 7.0 with NaOH(OR-2), and gently shaken in OR-2 containing 0.2% collagenase Type 1 (ICN Biomedicals, Aurora, Ohio) for 2–5 hours. When approximately 50% of the follicular layers were removed, Stage V and VI oocytes were selected and rinsed in media consisting of 75% OR-2 and 25% ND-96. The ND-96 contained (in mM): NaCl 100, KCl 2, MgCl2 1, CaCl2 1.8, HEPES 5, Na pyruvate 2.5, gentamicin (50 ug/ml), adjusted to pH 7.0 with NaOH. […] For in vitro transcription, pGEM HE (Liman et al., 1992) containing human 5-HT3-A (Genbank D49394) or 5-HT3-C cDNA was linearized with NheI and transcribed with T7 RNA polymerase (Stratagene) in the presence of the cap analog m7G(5′)ppp(5′)G. The synthesized cRNA was purified with a Sephadex G-50 spin column. […] Control oocytes were injected with 50 nl of water. Oocytes were incubated for 2–14 days in ND-96 before analysis for expression of the human 5-HT3-C. Incubations and collagenase digestion were carried out at room temperature. Injected oocytes were maintained in 48 well cell culture clusters (Costar, Cambridge, Mass.) at 18° C. Whole cell agonist-induced currents were measured 1–14 days after injection with a conventional two-electrode voltage clamp (GeneClamp500, Axon Instruments, Foster City, Calif.) using standard methods previously described and known in the art (Dascal, 1987). The microelectrodes were filled with 3 M KCl, which had resistances of 1 and 2 MΩ. Cells were continuously perfused with ND96 at 10 ml/min at room temperature unless indicated. Membrane voltage was clamped at −70 mV unless indicated.
# [2] = molecular target: T3, human 5-HT3-A(short) together with 5-HT3-C (Homo sapiens, UniProt P46098); assay: Two-electrode voltage clamp, oocytes co-injected with 5-HT3-A(short) and 5-HT3-C
# T3 construct: Characterization of the Function of Protein Encoded by p5HT3CR in Xenopus oocvtes; expressed in transfected cells; host or cells: Xenopus laevis oocytes co-injected with cRNAs
# T3 sequence (P46098 24-478): T1 sequence (P46098 24-478)
# Method: as §1
# Functional expression of human serotonin 5-HT3 receptor modifier subunit 5-HT3-C together with the human short form of the 5-HT3-A receptor (Genbank accession # D49394) in Xenopus oocytes is shown in FIGS. 4 and 5. Agonist was applied during the time indicated by the horizontal bar above the record. […] As a positive control for translation and surface expression, all oocytes were co-injected with a Shaker potassium channel N-terminal deletion mutant that lacks fast inactivation. […] Oocytes were continuously perfused with Ba^2+ containing ND96 at a rate of 10 ml/min at room temperature. Time scale bar: 25 sec. Similar results were obtained in experiments in which oocytes were bathed in Ca^2+ containing ND96.
smiles,measurement,setting,value
"NCCc1c[nH]c2ccc(O)cc12 [5-HT, 5-hydroxytryptamine]",peak currents to 5-HT,"[1]; 5-HT3-A(short)-expressing oocytes, comparison for 2:1 ratio, n=19",−1.65+/−0.42 nA
same,Responses to 5-HT,"[1]; 10 LM 5-HT, 5-HT3-A(short)-injected oocytes (0.33 ng), n=6",−3.89+/−0.76 nA
same,responsiveness of oocytes to agonist,5-HT3-B and 5-HT3-C,unresponsive
same,peak response to 5-HT,"[2]; 10 μM 5-HT, 2-fold more 5-HT3-C cRNA (0.67 ng), control = 5-HT3-A homomeric",about 10 % of control
same,effect of 5-HT3-C on 5-HT response,"[2]; 1:1 ratio, n=6",little effect
same,5-HT response diminished,"[2]; 1.8×fold 5-HT3-C to 5-HT3-A cRNA concentration, n=3",about 20%
same,peak currents to 5-HT,"[2]; 5-HT3-C and 5-HT3-A(short) at a ratio of 2:1, n=20",−0.028+/−0.007 nA
same,sensitivity of oocytes to 5-HT,[2]; 5-HT3-C:5-HT3-A(short) 10:1,essentially insensitive
same,Responses to 5-HT,"[2]; 10 LM 5-HT, 5-HT3-C:5-HT3-A(short) 10:1 (3.35 ng : 0.33 ng), n=6",−0.010+/−0.008 nA

# From patent publication US7109296B2, “Human 5-HT3-C protein” (Ortho-McNeil Pharmaceutical, Inc., priority 1999, dated 2006)
